For the series the following is noted: the molecule shown is the open-chain precursor.

The record followed here is patent US10577383B2, “Macrocyclic inhibitors of myeloperoxidase” (BRISTOL-MYERS SQUIBB COMPANY, priority 2016, dated 2020).

Read-outs that look alike come from different tables or passages of the source.

Regarding `CC(C)(C)OC(=O)N(C/C=C(\I)c1cc(NC(c2ccccc2)(c2ccccc2)c2ccccc2)nc2c1nnn2C(c1ccccc1)(c1ccccc1)c1ccccc1)CC(=O)N(CCc1ccccc1)Cc1cccc(Cn2cc(B3OC(C)(C)C(C)(C)O3)cn2)c1`, the ring closure, isolated yield (cc_pd bond, 15-membered ring, PdCl2(dppf)-CH2Cl2/K2CO3, dioxane/H2O, 1.07 mM, 85.0 °C) worked out at 42%.
The compound `CC(C)(C)OC(=O)N(C/C=C(\I)c1cc(NC(c2ccccc2)(c2ccccc2)c2ccccc2)nc2c1nnn2C(c1ccccc1)(c1ccccc1)c1ccccc1)CCCOc1cccc(Cn2cc(B3OC(C)(C)C(C)(C)O3)cn2)c1` displayed a ring closure, isolated yield (cc_pd bond, 15-membered ring, PdCl2(dppf)-CH2Cl2/K2CO3, dioxane/H2O, 1.04 mM, 85.0 °C) of 39.1%.
`CC(C)(C)OC(=O)N(C/C=C(\I)c1cc(NC(c2ccccc2)(c2ccccc2)c2ccccc2)nc2c1nnn2C(c1ccccc1)(c1ccccc1)c1ccccc1)[C@H]1C[C@H](Cc2ccccc2)[C@H](Oc2cccc(Cn3cc(B4OC(C)(C)C(C)(C)O4)cn3)c2)C1` came in with a ring closure, isolated yield (cc_pd bond, 15-membered ring, PdCl2(dppf)-CH2Cl2/K2CO3, dioxane/H2O, 1.0 mM, 85.0 °C) of 45%.
`CC1(C)OB(c2cnn(Cc3cccc(Oc4cccc(CCNC/C=C(\I)c5cc(NC(c6ccccc6)(c6ccccc6)c6ccccc6)nc6c5nnn6C(c5ccccc5)(c5ccccc5)c5ccccc5)c4)c3)c2)OC1(C)C` came in with a ring closure, isolated yield (cc_pd bond, 17-membered ring, PdCl2(dppf)-CH2Cl2/K2CO3, dioxane/H2O, 2.45 mM, 85.0 °C) of 35.1%.
For the setting “cc_pd bond, 17-membered ring, PdCl2(dppf)-CH2Cl2/K2CO3, dioxane/H2O, 1.28 mM, 85.0 °C”, `C[C@@H](Cc1cccc(Oc2cccc(Cn3cc(B4OC(C)(C)C(C)(C)O4)cn3)c2)c1)N(C/C=C(\I)c1cc(NC(c2ccccc2)(c2ccccc2)c2ccccc2)nc2c1nnn2C(c1ccccc1)(c1ccccc1)c1ccccc1)C(=O)OC(C)(C)C` returned a ring closure, isolated yield of 36%.
As to `Oc1cccc(Cn2cc(C(CCNCc3cccc(I)c3)c3cc(NC(c4ccccc4)(c4ccccc4)c4ccccc4)nc4c3nnn4C(c3ccccc3)(c3ccccc3)c3ccccc3)cn2)c1` (stereo not drawn), the ring closure, isolated yield (ether bond, 16-membered ring, CuI/1,10-phenanthroline/Cs2CO3, toluene, 4.8 mM, 150.0 °C) turned out to be 29%.
